Measurements published in patent publication US9550763B2, “Heterocyclic ring and carbocyclic derivative” (Shionogi & Co., Ltd., priority 2012, dated 2017).

The molecules below were run against human P2X3 receptor (Homo sapiens (Human), UniProt P56373) (assay: Evaluation of human P2X3 receptor inhibitory activity (Test Example 1-1, FDSS 3000, 96-well, 50 nM ATP)). Details: human P2X3 receptor in C6BU-1 cells; Test Example 1-1 (compounds I-001 to I-300).
Format: cell-based
Protocol: Stably expressing cell line (C6BU-1 cell transfected with human P2X3 receptor gene (GenBank accession number Y07683) was used. The cells were seeded in a 96-well microtiter plate at a concentration of 8000 cells/well and cultured in the medium (7.0% fetal bovine serum, 7.0% horse serum, 1% antibiotic and antifungal in DMEM) for one day at 37° C. under 5% carbon dioxide atmosphere. The medium was replaced with 4 μM Fluo-3-AM solution (20 mM HEPES, 137 mM NaCl, 5.27 mM KCl, 0.9 mM MgCl2, 1.26 mM CaCl2, 5.6 mM D-glucose, 2.5 mM probenecid, 1% BSA, and 0.08% Pluronic F-127, pH 7.5) and incubated at 37° C. under 5% dioxide carbon atmosphere for one hour. The plate was washed with washing buffer (20 mM HEPES, 137 mM NaCl, 5.27 mM KCl, 0.9 mM MgCl2, 1.26 mM CaCl2, 5.6 mM D-glucose, 2.5 mM probenecid, pH7.5), and each well was added with 40 μL of this buffer. The plate was placed in High-Throughput Screening System. FDSS 3000 (Hamamatsu Photonics K.K.). Measurement of fluorescence intensity by FDSS 3000 was started, and 40 μL of DMSO solutions containing different concentrations of the test compound as prepared by dilution with dilution buffer (20 mM HEPES, 137 mM NaCl, 5.27 mM KCl, 0.9 mM MgCl2, 1.26 mM CaCl2, 5.68 mM D-glucose, 2.5 mM probenecid, 0.1% Pluronic F-127, pH7.5) were dispensed to each well through the built-in automatic dispenser. Five minutes after, 50 nM ATP solution (50 μL) prepared by dilution with the dilution buffer was dispensed through the built-in automatic dispenser, and the measurement of fluorescence intensity was continued for 4 min. For each well, the specific maximum fluorescence intensity was calculated as the ratio of the maximum fluorescence intensity after addition of the ATP solution to the fluorescence intensity at the starting of the measurement. The 50% inhibitory concentration (IC50) was calculated under the assumption that the specific maximum fluorescence intensity without test compound is 0% inhibition and that the specific maximum fluorescence intensity when the dilution buffer was added in place of ATP solution is 100% inhibition, to evaluate the inhibitory activity of the test compound. FDSS software (Hamamatsu Photonics K.K.) was used for calculation of the specific maximum fluorescence intensity. IC50 was calculated using Microsoft Excel (Microsoft Corporation) and XLfit (idbs Ltd.)
The data of the compounds I-001 to I-300 are the results by the method mentioned in Test Example 1-1, and the data of the compounds I-301 to I-483 are the results by the method mentioned in Test Example 1-2.

human P2X3 receptor, sequence (P56373 whole entry): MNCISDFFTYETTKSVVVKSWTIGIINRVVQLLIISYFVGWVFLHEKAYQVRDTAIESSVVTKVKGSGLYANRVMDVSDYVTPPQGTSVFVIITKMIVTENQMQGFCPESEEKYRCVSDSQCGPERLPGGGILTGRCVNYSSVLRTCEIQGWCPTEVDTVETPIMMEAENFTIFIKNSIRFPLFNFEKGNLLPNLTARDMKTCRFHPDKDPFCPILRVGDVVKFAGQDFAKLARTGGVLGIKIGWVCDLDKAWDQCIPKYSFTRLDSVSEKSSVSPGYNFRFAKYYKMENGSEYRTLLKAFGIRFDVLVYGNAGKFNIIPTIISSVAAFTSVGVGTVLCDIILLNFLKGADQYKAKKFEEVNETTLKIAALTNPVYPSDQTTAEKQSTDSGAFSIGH

First: O=C(Nc1c[nH]/c(=N\c2ccc(Oc3ccon3)cc2)n(Cc2ccc(F)cc2)c1=O)C1CCOCC1 [Compound I-123]
Second: O=C(Nc1c[nH]/c(=N\c2ccc(Oc3ccon3)cc2)n(Cc2ccc(Cl)cc2)c1=O)C1COC1 [Compound I-184]
The IC50 of the first is 1.7-fold higher: 24 nM for the first, 14 nM for the second.

CCn1c(=O)cc(Nc2ccc(Oc3cccc(C#N)n3)cn2)n(Cc2ccc(Cl)cc2)c1=O [Compound I-124] and CCCn1c(=O)cc(Nc2ccc(Oc3cccc(C#N)n3)cn2)n(Cc2ccc(Cl)cc2)c1=O [Compound I-171] are within 1.5-fold of each other in IC50: 19 nM for the first, 21 nM for the second.

CCn1c(=O)cc(Nc2ccc(Oc3cccc(C(=O)O)n3)cn2)n(Cc2ccc(Cl)cc2)c1=O [Compound I-125] and CCCn1c(=O)cc(Nc2ccc(Oc3cccc(C(=O)O)n3)cn2)n(Cc2ccc(Cl)cc2)c1=O [Compound I-172] are within 1.5-fold of each other in IC50: 23 nM for the first, 16 nM for the second.

C[C@@H](Cn1c(=O)cc(Nc2ccc(Oc3cccc(C(N)=O)n3)c(F)c2)n(Cc2ccc(Cl)cc2)c1=O)C(=O)O [Compound I-126] and C[C@@H](Cn1c(=O)cc(Nc2ccc(Oc3cccc(C#N)n3)c(F)c2)n(Cc2ccc(Cl)cc2)c1=O)C(=O)O [Compound I-127] are the same in IC50: 3 nM for the first, 3 nM for the second.

CCOC(=O)c1c[nH]/c(=N\c2ccc(Oc3ccc(F)cn3)cc2)n(Cc2ccc(Cl)cc2)c1=O [Compound I-128] and NC(=O)c1c[nH]/c(=N\c2ccc(Oc3ccc(F)cn3)cc2)n(Cc2ccc(Cl)cc2)c1=O [Compound I-142] are within 1.5-fold of each other in IC50: 35 nM for the first, 26 nM for the second.

Going from CCc1c[nH]/c(=N\c2ccc(Oc3cccc(C#N)n3)cc2)n(Cc2ccc(Cl)cc2)c1=O [Compound I-129] to CCOC(=O)c1c[nH]/c(=N\c2ccc(Oc3cccc(C#N)n3)cc2)n(Cc2ccc(Cl)cc2)c1=O [Compound I-153], the IC50 falls from 61 nM to 21 nM (2.9-fold). The second is the more potent here.

Compared with CCc1c[nH]/c(=N\c2ccc(Oc3cccc(C#N)n3)c(C)c2)n(Cc2ccc(Cl)cc2)c1=O [Compound I-130], CCc1c[nH]/c(=N\c2ccc(Oc3cccc(C(=O)O)n3)c(C)c2)n(Cc2ccc(Cl)cc2)c1=O [Compound I-148] is 1.8-fold higher in IC50: 32 nM for the first, 59 nM for the second. The first is the more potent here.

O=C(Nc1cnc(Nc2ccc(Oc3nccs3)cc2)n(Cc2ccc(Cl)cc2)c1=O)C1CCOCC1 [Compound I-131] and O=C(Nc1cnc(Nc2ccc(Oc3ncccc3F)cc2)n(Cc2ccc(Cl)cc2)c1=O)C1CCOCC1 [Compound I-132] are the same in IC50: 2 nM for the first, 2 nM for the second.

Going from O=C(Nc1cnc(Nc2ccc(Oc3ccc(F)cn3)cc2)n(Cc2ccc(Cl)cc2)c1=O)C1CCOCC1 [Compound I-133] to O=C(Nc1cnc(Nc2ccc(Oc3cccc(F)n3)cc2)n(Cc2ccc(Cl)cc2)c1=O)C1CCOCC1 [Compound I-134], the IC50 rises from 1 nM to 2 nM (2-fold). The first is the more potent here.

Going from Cc1cc(Nc2ncc(NC(=O)C3CCOCC3)c(=O)n2Cc2ccc(Cl)cc2)ccc1Oc1cccc(F)n1 [Compound I-135] to Cc1cc(Nc2nc(=O)c(C(=O)NC3CCOCC3)cn2Cc2ccc(Cl)cc2)ccc1Oc1cccc(F)n1 [Compound I-157], the IC50 rises from 2 nM to 11 nM (5.5-fold).

Going from Cc1cncc(Oc2ccc(Nc3ncc(NC(=O)C4CCOCC4)c(=O)n3Cc3ccc(Cl)cc3)cc2)n1 [Compound I-136] to Cc1ccc(Oc2ccc(Nc3ncc(NC(=O)C4CCOCC4)c(=O)n3Cc3ccc(Cl)cc3)cc2)nn1 [Compound I-137], the IC50 falls from 2 nM to 1 nM (2-fold).

Compared with CCC(=O)Nc1c[nH]/c(=N\c2ccc(Oc3cnc(C#N)cn3)cc2)n(Cc2ccc(Cl)cc2)c1=O [Compound I-138], CCC(=O)Nc1c[nH]/c(=N\c2ccc(Oc3cncc(C)n3)cc2)n(Cc2ccc(Cl)cc2)c1=O [Compound I-145] is 10-fold higher in IC50: 4 nM for the first, 40 nM for the second. The first is the more potent here.

First: Cc1cc(/N=c2\[nH]cc(C(N)=O)c(=O)n2Cc2ccc(Cl)cc2)ccc1Oc1cccc(F)n1 [Compound I-139]
Second: COc1cccc(Oc2ccc(/N=c3\[nH]cc(C(N)=O)c(=O)n3Cc3ccc(Cl)cc3)cc2C)n1 [Compound I-140]
The IC50 of the first is 6.2-fold lower: 16 nM for the first, 99 nM for the second. The first is the more potent here.

O=C(O)c1c[nH]/c(=N\c2ccc(Oc3ccc(F)cn3)cc2)n(Cc2ccc(Cl)cc2)c1=O [Compound I-141] and Cc1ccc(Oc2ccc(/N=c3\[nH]cc(C(=O)O)c(=O)n3Cc3ccc(Cl)cc3)cc2)nn1 [Compound I-179] are within 1.5-fold of each other in IC50: 467 nM for the first, 359 nM for the second.

First: N#Cc1cnc(Oc2ccc(/N=c3\[nH]cc(NC(=O)C4CCOCC4)c(=O)n3Cc3ccc(Cl)cc3)cc2)cn1 [Compound I-143]
Second: O=C(Nc1c[nH]/c(=N\c2ccc(Oc3ccon3)cc2)n(Cc2ccc(Cl)cc2)c1=O)C1CNC1 [Compound I-181]
The IC50 of the first is 66-fold lower: 2 nM for the first, 131 nM for the second. The first is the more potent here.

First: CCc1c[nH]/c(=N\c2ccc(Oc3cccc(C(=O)O)n3)cc2)n(Cc2ccc(Cl)cc2)c1=O [Compound I-144]
Second: NC(=O)c1cccc(Oc2ccc(/N=c3\[nH]cc(C(N)=O)c(=O)n3Cc3ccc(Cl)cc3)cc2)n1 [Compound I-178]
The IC50 of the first is 2.5-fold higher: 35 nM for the first, 14 nM for the second. The second is the more potent here.

First: CCC(=O)Nc1c[nH]/c(=N\c2ccc(Oc3ccc(C)nn3)cc2)n(Cc2ccc(Cl)cc2)c1=O [Compound I-146]
Second: CCOC(=O)c1c[nH]/c(=N\c2ccc(Oc3ccc(C)nn3)cc2)n(Cc2ccc(Cl)cc2)c1=O [Compound I-177]
The IC50 of the first is 1.9-fold higher: 26 nM for the first, 14 nM for the second.

Compared with C=C(C)c1c[nH]/c(=N\c2ccc(Oc3cccc(C#N)n3)cc2)n(Cc2ccc(Cl)cc2)c1=O [Compound I-147], Cc1ccc(Oc2ccc(/N=c3\[nH]cc(C(N)=O)c(=O)n3Cc3ccc(Cl)cc3)cc2)nn1 [Compound I-180] is 5.3-fold lower in IC50: 112 nM for the first, 21 nM for the second. The second is the more potent here.

First: Cc1noc(-c2c[nH]/c(=N\c3ccc(Oc4ccc(F)cn4)cc3)n(Cc3ccc(Cl)cc3)c2=O)n1 [Compound I-151]
Second: O=c1cc[nH]/c(=N\c2ccc(Oc3ccc(F)cn3)cc2)n1Cc1ccc(Cl)cc1 [Compound I-152]
The IC50 of the first is 9.4-fold lower: 31 nM for the first, 291 nM for the second. The first is the more potent here.

First: CCc1cn(Cc2ccc(Cl)cc2)c(Nc2ccc(Oc3ncc(C(=O)O)s3)cc2)nc1=O [Compound I-154]
Second: O=C(NC1CCOCC1)c1cn(Cc2ccc(Cl)cc2)c(Nc2ccc(Oc3nccs3)cc2)nc1=O [Compound I-161]
The IC50 of the first is 14-fold higher: 317 nM for the first, 22 nM for the second.

Compared with O=C(NC1CCOCC1)c1cn(Cc2ccc(Cl)cc2)c(Nc2ccc(Oc3ncccc3F)cc2)nc1=O [Compound I-155], Cc1cc(Nc2nc(=O)c(C(=O)NC3CCOCC3)cn2Cc2ccc(Cl)cc2)ccc1Oc1ncccc1F [Compound I-160] is 1.5-fold higher in IC50: 17 nM for the first, 26 nM for the second. The first is the more potent here.

First: O=C(NC1CCOCC1)c1cn(Cc2ccc(Cl)cc2)c(Nc2ccc(Oc3cccc(F)n3)cc2)nc1=O [Compound I-156]
Second: O=C(NC1CCOCC1)c1cn(Cc2ccc(Cl)cc2)c(Nc2ccc(Oc3ccc(F)cn3)cc2)nc1=O [Compound I-158]
The IC50 of the first is 1.8-fold lower: 6 nM for the first, 11 nM for the second. The first is the more potent here.

Compared with CCC(=O)Nc1c[nH]/c(=N\c2ccc(Oc3ccnc(CO)c3)cc2)n(Cc2ccc(Cl)cc2)c1=O [Compound I-163], CN(C)CCC(=O)Nc1c[nH]/c(=N\c2ccc(Oc3ccon3)cc2)n(Cc2ccc(Cl)cc2)c1=O [Compound I-185] is 7.5-fold higher in IC50: 21 nM for the first, 158 nM for the second.

CCCn1c(=O)cc(Nc2ccc(Oc3cccc(C#N)n3)cc2)n(Cc2ccc(Cl)cc2)c1=O [Compound I-164] and CCCn1c(=O)cc(Nc2ccc(Oc3cccc(C(=O)O)c3)cc2)n(Cc2ccc(Cl)cc2)c1=O [Compound I-169] are within 1.5-fold of each other in IC50: 10 nM for the first, 11 nM for the second.

Compared with CCCn1c(=O)cc(Nc2ccc(Oc3cccc(C(=O)OCC)c3)cn2)n(Cc2ccc(Cl)cc2)c1=O [Compound I-166], CCCn1c(=O)cc(Nc2ccc(Oc3cccc(C(=O)O)c3)cn2)n(Cc2ccc(Cl)cc2)c1=O [Compound I-167] is 4.8-fold lower in IC50: 169 nM for the first, 35 nM for the second.

First: CCCn1c(=O)cc(Nc2ccc(Oc3cccc(C(=O)OC)c3)cc2)n(Cc2ccc(Cl)cc2)c1=O [Compound I-168]
Second: CCn1c(=O)cc(Nc2ccc(Oc3ccc(C(=O)OC)nn3)cc2)n(Cc2ccc(Cl)cc2)c1=O [Compound I-173]
The IC50 of the first is 40-fold higher: 159 nM for the first, 4 nM for the second.

Going from CCc1c[nH]/c(=N\c2ccc(Oc3cncc(C(=O)O)c3)cc2)n(Cc2ccc(Cl)cc2)c1=O [Compound I-170] to O=c1c(NC(=O)[C@H]2C[C@H](O)C2)c[nH]/c(=N\c2ccc(Oc3ccon3)cc2)n1Cc1ccc(Cl)cc1 [Compound I-183], the IC50 falls from 54 nM to 6 nM (9-fold).

CCn1c(=O)cc(Nc2ccc(Oc3ccc(C(=O)O)nn3)cc2)n(Cc2ccc(Cl)cc2)c1=O [Compound I-174] and O=C(NC1CCOCC1)c1cn(Cc2ccc(Cl)cc2)c(Nc2ccc(Oc3ccon3)cc2)nc1=O [Compound I-175] are within 1.5-fold of each other in IC50: 36 nM for the first, 37 nM for the second.

With CC(C)(C)OC(=O)N1CCC(C(=O)Nc2c[nH]/c(=N\c3ccc(Oc4ccon4)cc3)n(Cc3ccc(Cl)cc3)c2=O)CC1 [Compound I-182] the IC50 was 52 nM.
